Experimental data reported in article PMC6804079, “Investigation of 5’-Norcarbocyclic Nucleoside Analogues as Antiprotozoal and Antibacterial Agents” (Molecules, 2019).
In brackets after ≈: the same amount, converted by molar mass. Several values for one entry are separate records, joined by “and”; a condition that tells them apart may be missing. Equal entries are not always repeated.

Assays:
[1] = system: M. tuberculosis ATCC 25,177 (H37Ra); experiment: microbe, parasite or virus in culture; type: cell-based, Mycobacterium tuberculosis; details: for MIC: Mycobacterium tuberculosis, read-out: M. Tuberculosis 25,177 MIC
[2] = system: M. tuberculosis H37Rv; experiment: microbe, parasite or virus in culture; type: cell-based; details: Mycobacterium tuberculosis, control drugs at critical concentrations
[3] = system: T. brucei B48; experiment: microbe, parasite or virus in culture; type: cell-based, Trypanosoma brucei brucei; details: for EC50: Trypanosoma brucei, read-out: T. Brucei, EC50, B48
[4] = system: T. b. brucei strain Lister 427 (s427-WT); experiment: resazurin EC50 assay, T. b. brucei wild-type bloodstream forms; type: cell-based, Trypanosoma brucei brucei; details: 48 h + 24 h resazurin, average and SEM, at least three determinations, NE = no effect on cell viability at 100 µM; for EC50: Trypanosoma brucei, 72 h
[5] = system: Tbb-5FURes; experiment: microbe, parasite or virus in culture; type: cell-based, Trypanosoma brucei brucei; details: for EC50: Trypanosoma brucei, read-out: T. Brucei, EC50, Tbb-5FURes
[6] = system: T. vaginalis strain G3; experiment: resorufin-based EC50 assay, T. vaginalis; details: Trichomonas vaginalis, read-out: Trichomonas Vaginalis, EC50
Description: The standard metronidazole-susceptible T. vaginalis strain G3was originally obtained from Jeremy Mottram (University of York, UK) and cultured in a modification of Diamond′s medium supplemented with 10% horse serum with a composition as described [40] at 37 °C under anaerobic conditions. Cultures were passaged daily.
Drugs were tested on T. vaginalis using a resorufin-based assay that we developed [40, 43]. The assay is based on the principle that live T. vaginalis trophozoites are, almost uniquely, able to reduce fluorescent, pink resorufin to non-fluorescent, colorless dihydro-resorufin. This conversion was measured as a dose-dependent increase in fluorescence (with dead cells unable to metabolize the fluorophore; λexc 544 nm, λem 599 nm), resulting in a sigmoid curve with variable slope that yielded EC50 values (Prism 6.0). Plates contained 11 doubling dilutions (1 row) and no-drug control for each compound starting at 100 µM under anaerobic conditions as described [40, 43]. Fluorescence was determined in a PheraStar plate reader (BMG Labtech).

[7] = system: U-937 cells; experiment: U-937 cytotoxicity (XTT); type: cell-based; details: 6 days incubation
Description: The U-937 cells used in the cytotoxicity evaluation were obtained from the AIDS Research and Reference Program. The cells were cultured as indicated by the supplier in RPMI-1640 supplemented with 10% heat inactivated FBS, 1% penicillin/streptomycin solution, and 1% L-glutamine.
U-937 cells plated at 2.5 × 10^3 cells/well in a volume of 100 µL were incubated with serially diluted test compounds in a volume of 100 µL for 6 days at 37 °C/5% CO2. Following the incubation, the cells were stained by adding 50 μL tetrazolium dye XTT (Sigma) solution at 5 mg/mL to determine cellular viability and read at 460/650 nm on a spectrophotometer. Toxicity values were calculated using linear regression analysis.

[8] = system: L. mexicana 5FURes (Lmex5FURes); experiment: microbe, parasite or virus in culture; details: Leishmania mexicana, read-out: L. Mexicana 5FUR, EC50
Description: (§1) Promastigotes of Leishmania mexicana strain MNY/BZ/62/M379 was cultured in a minimal essential medium, HO-MEMO-MEME, supplemented with 10% FBS and 1% of a penicillin/streptomycin solution (Gibco) as described previously [39] at 25 °C. The L. mexicana 5FURes strain was the same strain but adapted in vitro to high levels of 5FU exactly as described for T. brucei [12].
(§2) The resazurin assay for L. mexicana promastigotes was performed exactly as for T. b. brucei, except that incubation times of 72 and 48 h were used before and after the addition of resazurin, respectively, due to the slower metabolism of the dye by Leishmania promastigotes [42].

[9] = system: T. brucei 2T1 PYR6-5 −/−; experiment: microbe, parasite or virus in culture; type: cell-based, Trypanosoma brucei brucei; details: for EC50: Trypanosoma brucei, read-out: T. Brucei, EC50, 2T1 PYR6-5 −/−
[10] = system: M. tuberculosis MS-115; experiment: microbe, parasite or virus in culture; type: cell-based; details: Mycobacterium tuberculosis, MS115, read-out: M. Tuberculosis MS-115 MIC
[11] = system: M. smegmatis 700,084; type: cell-based, Mycobacterium smegmatis; details: tested up to 250 µM
[12] = system: Staphylococcus aureus NRS384; experiment: microbe, parasite or virus in culture; type: cell-based; details: NRS384, read-out: extrapolated IC50, growth of S. aureus NRS384
[13] = system: L. mexicana WT promastigotes (strain MNY/BZ/62/M379); experiment: resazurin EC50 assay, L. mexicana promastigotes wild-type; details: 72 h + 48 h resazurin, average and SEM, NE = no effect on cell viability at 100 µM
Description: as §1, §2

[14] = system: L. mexicana 5FURes (Lmex5FURes); details: differences in EC50 between wild-type and 5FU-resistant L. mexicana
Description: as §1, §2

| SMILES | MIC [1] | MIC [2] [µg/mL] | EC50 [3] [µM] | EC50 [4] [µM] | EC50 [5] [µM] | EC50 [6] [µM] | U-937 Cells TC50 [7] [µM] | EC50 [8] [µM] | EC50 [9] [µM] | further results |
| --- | --- | --- | --- | --- | --- | --- | --- | --- | --- | --- |
| CCCCCCCCC#Cc1cn([C@H]2C=C[C@@H](O)C2)c(=O)n([C@H]2C=C[C@@H](O)C2)c1=O [Compound 3, 1-[4′-Hydroxy-2′-cyclopenten-1′-yl]-3-(4′′-hydroxy-2′′-cyclopent-en-1′′-yl)-5-decynyluracil] | 31 µM and 12.8 µg/mL | 50 (≈ 121 µM) | 14.7 ± 0.2 | ~13 | 19.9 ± 0.7 | 32 ± 0.001 | 2.2 | 25.8 ± 0.4 | 17.1 ± 1.2 | MIC [10]: 50 µg/mL (≈ 121 µM) |
| CO[C@H]1/C=C/O[C@@]2(C)Oc3c(C)c(O)c4c(O)c(c(/C=N/N5CCN(C)CC5)c(O)c4c3C2=O)NC(=O)/C(C)=C\C=C\[C@H](C)[C@H](O)[C@@H](C)[C@@H](O)[C@@H](C)[C@H](OC(C)=O)[C@@H]1C [Rifampicin, reference compound] | 0.19 µM and 0.16 µg/mL | 1 (≈ 1.22 µM) |  |  |  |  |  |  |  | MIC [10]: > 50 µg/mL |
| CCCCCc1ccc(C#Cc2cn([C@H]3C=C[C@@H](O)C3)c(=O)n([C@H]3C=C[C@@H](O)C3)c2=O)cc1 [Compound 8] | 31 µM and 13.9 µg/mL | > 50 | 11 ± 0.6 | ~8 | 12 ± 1.2 | 36.9 ± 0.18 | 17.3 | 27.5 ± 2.3 | 15.4 ± 0.7 | concentration completely inhibiting growth of M. smegmatis [11]: 250 µM |
| Cc1ncc([N+](=O)[O-])n1CCO [Metronidazole, reference compound] |  |  |  |  |  | 0.53 ± 0.1 |  |  |  |  |
| C[C@H]1COc2c(N3CCN(C)CC3)c(F)cc3c(=O)c(C(=O)O)cn1c23 [Levofloxacin, reference compound] |  | 1.5 (≈ 4.15 µM) |  |  |  |  |  |  |  | MIC [10]: 1.5 µg/mL (≈ 4.15 µM) |
| CCCC#Cc1cn([C@H]2C=C[C@@H](O)C2)c(=O)n([C@H]2C=C[C@@H](O)C2)c1=O [Compound 5, 1-[4′-Hydroxy-2′-cyclopenten-1′-yl]-3-(4′′-hydroxy-2′′-cyclopent-en-1′′-yl)-5-pentynyluracil] | > 1000 µM and > 342 µg/mL |  | > 100 | > 100 | > 100 | 73.5 ± 0.08 | 88.5 | > 100 | > 100 |  |
| CCCCCCC#Cc1cn([C@H]2C=C[C@@H](O)C2)c(=O)n([C@H]2C=C[C@@H](O)C2)c1=O [Compound 4, 1-[4′-Hydroxy-2′-cyclopenten-1′-yl]-3-(4′′-hydroxy-2′′-cyclopent-en-1′′-yl)-5-octynyluracil] | 31 µM and 11.9 µg/mL | > 50 | 17.7 ± 1 | ~13 | 24.9 ± 0.5 | 54.1 ± 0.002 | 73.8 | 47.3 ± 0.4 | 17.5 ± 1.2 |  |
| CCOC(=O)C#Cc1cn([C@H]2C=C[C@@H](O)C2)c(=O)n([C@H]2C=C[C@@H](O)C2)c1=O [Compound 11, 1-[4′-Hydroxy-2′-cyclopenten-1′-yl]-3-(4′′-hydroxy-2′′-cyclopent-en-1′′-yl)-5-(ethyloxycarbonylpropynyl)uracil] | 1000 µM and 372 µg/mL |  | > 100 | > 100 | > 100 | 53.8 ± 0.74 | 21.6 | > 100 | > 100 | IC50 [12]: ~100 µM; T. Brucei, EC50, S427-WT [4]: little or no activity at the highest concentration tested |
| O=c1c(C#CCO)cn([C@H]2C=C[C@@H](O)C2)c(=O)n1[C@H]1C=C[C@@H](O)C1 [Compound 9, 1-[4′-Hydroxy-2′-cyclopenten-1′-yl]-3-(4′′-hydroxy-2′′-cyclopent-en-1′′-yl)-5-(hydroxypropynyl)uracil] | 1000 µM and 330 µg/mL |  | 76.8 ± 4.4 | 66.8 ± 6.6 | 74.9 ± 3.5 | 84.8 ± 0.004 | >100 | > 100 | 59.9 ± 1 | L. Mexicana WT, EC50 [13]: did not show any antileishmanial activity at all |
| O=C(NCC#Cc1cn([C@H]2C=C[C@@H](O)C2)c(=O)n([C@H]2C=C[C@@H](O)C2)c1=O)C(F)(F)F [Compound 10, 1-[4′-Hydroxy-2′-cyclopenten-1′-yl]-3-(4′′-hydroxy-2′′-cyclopent-en-1′′-yl)-5-(trifluoroacetamidepropynyl)uracil] | > 1000 µM and > 425 µg/mL |  | > 100 | > 100 | > 100 | 69.2 ± 0.05 | 78.0 | > 100 | > 100 | IC50 [12]: ~100 µM; T. Brucei, EC50, S427-WT [4]: little or no activity at the highest concentration tested |
| CCCCCCCCCc1ccc(OCCOCCOCCOCCOCCOCCOCCOCCOCCO)cc1 [Compound N9, Nonoxynol-9, reference compound] |  |  |  |  |  |  |  |  |  | U-937 Cells TC50 ([7]; positive control): 6.5 µg/mL; U-937 Cells TC50 ([7]; positive control, listed as Nonoxynol-9): toxic at the expected concentration |
| CCCCCCCCCCC#Cc1cn([C@H]2C=C[C@@H](O)C2)c(=O)n([C@H]2C=C[C@@H](O)C2)c1=O [Compound 2, 1-[4′-Hydroxy-2′-cyclopenten-1′-yl]-3-(4′′-hydroxy-2′′-cyclopent-en-1′′-yl)-5-dodecynyluracil] | 31 µM and 13.6 µg/mL | > 50 | 4 ± 0.4 | 3.1 | 5.2 ± 0.6 | 48.9 ± 0.05 | 22.1 | 51.1 ± 0.6 | 5.5 ± 0.5 |  |
| NNC(=O)c1ccncc1 [Isoniazid, reference compound] |  | 0.1 (≈ 0.729 µM) |  |  |  |  |  |  |  | MIC [10]: > 100 µg/mL |
| O=c1[nH]cc(F)c(=O)[nH]1 [5-Fluorouracil, reference compound] |  |  | 101 ± 7 | 87 ± 6.4 | 2500 ± 76 |  |  | 3520 ± 440 | 2.33 ± 0.35 | fold difference in EC50, 5FURes versus wild-type ([5]; resistance to 5FU, reduction in trypanocidal activity for test compounds): 28.7 fold; fold difference in EC50, PYR6-5 −/− versus wild-type ([9]; sensitization for 5FU, reduction in trypanocidal activity for test compounds): 37.4 fold; fold resistance, Lmex5FURes versus wild-type [14]: > 400 fold |
| O=c1c(C#Cc2ccccc2)cn([C@H]2C=C[C@@H](O)C2)c(=O)n1[C@H]1C=C[C@@H](O)C1 [Compound 6] | 500 µM and 188 µg/mL |  | > 100 | > 100 | > 100 | 70.2 ± 0.06 | 166.2 | > 100 | > 100 |  |
| CC(C)(C)c1ccc(C#Cc2cn([C@H]3C=C[C@@H](O)C3)c(=O)n([C@H]3C=C[C@@H](O)C3)c2=O)cc1 [Compound 7, 1-[4′-Hydroxy-2′-cyclopenten-1′-yl]-3-(4′′-hydroxy-2′′-cyclopent-en-1′′-yl)-5-(4-tertbutylphenynylethenyl)uracil] | 62.5 µM and 27 µg/mL | > 50 | 10.8 ± 0.6 | ~8 | 12.6 ± 1.4 | 52.8 ± 0.007 | 22.5 | 45.3 ± 2.2 | 14.7 ± 0.4 | concentration completely inhibiting growth of M. smegmatis [11]: 250 µM |
| NC[C@H]1O[C@H](O[C@H]2[C@H](O)[C@@H](O[C@H]3O[C@H](CO)[C@@H](O)[C@H](N)[C@H]3O)[C@H](N)C[C@@H]2N)[C@H](O)[C@@H](O)[C@@H]1O [Kanamycin, reference compound] |  |  |  |  |  |  |  |  |  | M. Tuberculosis 25,177 MIC [1]: 6.5 µM and 3.13 µg/mL |
| N=C(N)c1ccc(OCCCCCOc2ccc(C(=N)N)cc2)cc1 [Pentamidine, reference compound] |  |  | 0.71 ± 0.03 | 0.0032 ± 0.0004 | 0.0034 ± 0.0004 |  |  | 1.63 ± 0.18 | 0.0031 ± 0.0004 | fold resistance, B48 versus wild-type ([3]; higher EC50 against multi-drug resistant strain B48): 219 fold |
